Here are results for four molecules from US8343930B2, “Combination therapy for the treatment of tumors” (Cancer Advances, Inc., priority 2001, dated 2013).

The subject of one assay is rat colon tumor DHDK12. Nature of the assay: In vivo growth of DHDK12 tumors in abdominal wall muscle layer of BDIX rats. Conditions: immunization alone (200 μg/ml), 50 day time period; untreated 4.43 g. As to the method: Cell line. DHDK12 is a rat colonic epithelial tumor cell line (Martin, 1983). The cell line was maintained in RPMI 1640 growth medium (Gibco, Paisley, Scotland) containing 10% fetal calf serum (FCS, Sigma, Poole, UK) in humidified conditions at 37° C. and 5% CO2.
Initiation of tumor growth. DHDK12 cells were suspended in sterile phosphate buffered line (PBS, Oxoid, Hants., UK) at a cell concentration of 2.5×10^7/ml. Rats were anesthetized by a 1 ml intraperitoneal injection of Hypnorm ([…] fenatanyl citrate and 10 mg/ml fluanisone; Jannsen, Berrse, Belgium), Hypnovel ([…] midazolam; Roche, Basel, Switzerland), and sterile distilled water in a 1:1:5 ratio. Following a subcutaneous (s.c.) incision on the right flank, a 200 μl volume of cell suspension was injected into the muscle layer of the abdominal wall and the surgical incision closed by wound clips. Each experimental group was composed of between 6 and 13 animals.
The effects of combined therapies with 5-FU/Leucovorin (12.5-30 mg/kg) and rat anti-G17(1-9)-DT (200 μg/ml) on the growth of the rat colon tumor DHDK12 cell line in the muscle layer of the abdominal wall of BDIX rats were tested by comparison to tumors in control animals as described in the previous Examples. At the end of the therapies the rats were killed, their tumors excised and weighed using standard procedures. […]

The test system of the next assay is a number of cell lines. To be noted: Seva et al., 1990; Watson et al., 1991a; cited from earlier work.
In assay [1] the test system is advanced colorectal cancer. To be noted: advanced disease (Petrioli et al., 1995); cited from earlier work.
Assay [2] has as its system gastrin-sensitive mouse colon tumor MC26. Conditions: MC26-bearing mice; control animals 25 days; cited from earlier work.

Diphtheria toxoid [DT]: the median tumor weight in the assay on rat colon tumor DHDK12 came to 4.7 g.
Consider `O=C(N[C@@H](Cc1c[nH]c2ccccc12)C(=O)O)c1ccc(Cl)cc1` [Benzotript], for which the “effect on basal and gastrin-stimulated proliferation” value in the assay on a number of cell lines is reported as “inhibited”.
As to `O=c1[nH]cc(F)c(=O)[nH]1` [5-FU, 5-fluorouracil], in assay [1], the median survival is on record as 7.5 months.
Regarding `CCCN(CCC)C(=O)C(CCC(=O)O)NC(=O)c1ccccc1` (centres unmarked) [proglumide], the “effect on basal and gastrin-stimulated proliferation” value with a number of cell lines is listed as “inhibited”. In addition, the “survival of treated animals” value in assay [2] is given as 39 days.
